# Measurements from patent US8629251B2, “Specific detection and quantification of phosphatidic acid using an Arabidopsis trigalactosyldiacylglycerol-4 (TGD4) protein” (Board of Trustees of Michigan State University, priority 2008, dated 2014).
# Legend:
# Assay type in all cases: binding
# [1] = target: T1, Arabidopsis TGD2, DsRed-TGD2C T8 (residues 201-225, SEQ ID NO:12) (Arabidopsis thaliana, UniProt Q9LTR2); assay: Protein-lipid overlay assay, minimal domain; settings: FIG. 4B; compared to DR-WT
# T1 sequence (Q9LTR2 201-225): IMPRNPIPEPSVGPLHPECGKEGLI
# Procedure: Membrane lipid strips were purchased from Echelon Biosciences (Salt Lake City, Utah). The strips were first blocked with 3% bovine serum albumin in TBST (10 mM Tris-HCl, pH 8.0, 150 mM NaCl, and 0.25% Tween-20) for two hours and incubated in 0.5 μg/mL DsRed-TGD2 fusion protein solution in the blocking buffer at 4° C. overnight. The strips were washed 10 min for 3 times with TBST the next day and soaked in 3% bovine serum albumin in TBST with a Penta-His mouse monoclonal antibody (Sigma-Aldrich, St. Louis, Mo.) at 1:2,000 dilution at 4° C. overnight. The strips were washed twice with TBST and soaked in 3% bovine serum albumin in TBST with horseradish peroxidase-conjugated anti mouse antibody (Bio-Rad, Hercules, Calif.) at 1:20,000 dilution for an hour at room temperature. Following washing with TBST for 1 hour, the protein was detected by using the chemiluminescent detection system (Sigma-Aldrich).
# [2] = target: T2, Arabidopsis TGD2, DsRed-TGD2C with deletion of the 25-mer minimal domain (DR-Δ25, residues 201-225 deleted) (Arabidopsis thaliana, UniProt Q9LTR2, DEL201-225); assay: Liposome-association assay, minimal domain deletion DR-Δ25
# T2 construct: made in house; host or cells: Escherichia coli BL21 (DE3)
# Procedure: (§1) The liposome association assay was performed as previously reported. (31). Briefly, lipids (dioleoyl-phosphatidylcholine, DOPC or dioleoyl-PA, DOPA) were incubated in TBS (50 mM Tris-HCl, pH 7; 0.1 M NaCl) at 37° C. for an hour followed by vigorous vortexing for 5 min. The liposomes were precipitated at 20,000 g and washed twice with ice-cold TBS.
# (§2) Liposomes (200 μg) were mixed with purified DsRed-TGD2 fusion protein and TBS to make a final 100 μL solution. The mixture was incubated at 30° C. for 30 min and washed twice with ice-cold TBS by centrifugation at 20,000 g at 4° C. The liposome pellet mixed with sample buffer was analyzed by SDS-PAGE (28). Immuno-detection of the His-tagged protein was accomplished using the above mentioned Penta-His antibody at 1:15,000 and the anti mouse antibody at 1:75,000 dilution.
# (§3) The protein band was visualized by chemiluminescent detection kit from Sigma. The autoradiography film was scanned, distinct protein bands were quantified using computer software Multi Gauge V3.0 (Fujifilm USA, Valhalla, N.Y.) and resulted data were plotted and analyzed by OriginPro8 (Origin lab corporation, Northampton, Mass.).
# [3] = target: T3, Arabidopsis TGD4, DsRED-TGD4C-His (C-terminal fragment 309-479, SEQ ID NO: 131) (Arabidopsis thaliana, UniProt Q9M903); assay: Liposome association assay, DsRED-TGD4C-His; settings: dioleoyl-PtdOH/dioleoyl-PtdCho liposomes, 0 to 80% PtdOH, FIG. 19B
# T3 sequence (Q9M903 309-479): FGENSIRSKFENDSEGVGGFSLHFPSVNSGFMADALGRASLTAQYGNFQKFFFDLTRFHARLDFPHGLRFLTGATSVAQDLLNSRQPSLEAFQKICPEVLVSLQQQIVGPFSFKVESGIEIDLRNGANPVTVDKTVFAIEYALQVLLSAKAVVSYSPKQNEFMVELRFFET
# Procedure: (§4) Liposome Association Assay:
# (§5) The liposome association assay was adapted from (Awai et al., 2006, Lu and Benning, 2009) with minor modifications. Dioleoyl-PtdCho and PtdOH with different acyl chain lengths and desaturation levels were used for making liposomes. In other liposomes 1-palmitoyl-2-(12-((7-nitro-2-1,3-benzoxadiazol-4-yl)amino)dodecanoyl)-sn-glycero-3-phosphate (NBD-PtdOH; Avanti, Alabaster, Ala.) was used. The lipids were mixed at indicated ratios to give a total lipid amount of 250 μg. The lipids were dried under a stream of nitrogen, resuspended in 0.5 ml TBS buffer with 0.2 M choline chloride and hydrated at 37° C. for 1 hour followed by vigorous vortexing for 2 minutes. The resulting multi-lamellar vesicles were centrifuged at 13,000×g for 10 minutes and then washed once with TBS buffer containing 0.2 M choline chloride. The liposomes were resuspended into 100 μl TBS buffer with 0.2 M choline chloride and incubated with 2 μg purified DsRED-TGD4-His protein and its derivatives. The protein liposome mixture was incubated on ice for 30 minutes followed by centrifugation at 13,000×g for 10 minutes and two washes with 500 μl TBS containing 0.2 M choline chloride. The resulting protein-liposome pellet was resuspended in 20 μl 2× Laemmli buffer (Laemmli, 1970) and processed by SDS-PAGE (Shapiro and Maizel, 1969).
# [4] = tested on: DsRed protein (Discosoma sp. red fluorescent protein); assay: Liposome-association assay, DsRed control; settings: FIG. 3B
# Procedure: as §1, §2, §3
# [5] = target: T4, Arabidopsis TGD4, DsRED-TGD4-His, full-length TGD4 1-479 (SEQ ID NO: 132) (Arabidopsis thaliana, UniProt Q9M903); assay: Liposome association assay, DsRED-TGD4-His; settings: pH range of 6.4-7.8, FIG. 18E
# T4 sequence (Q9M903 1-479): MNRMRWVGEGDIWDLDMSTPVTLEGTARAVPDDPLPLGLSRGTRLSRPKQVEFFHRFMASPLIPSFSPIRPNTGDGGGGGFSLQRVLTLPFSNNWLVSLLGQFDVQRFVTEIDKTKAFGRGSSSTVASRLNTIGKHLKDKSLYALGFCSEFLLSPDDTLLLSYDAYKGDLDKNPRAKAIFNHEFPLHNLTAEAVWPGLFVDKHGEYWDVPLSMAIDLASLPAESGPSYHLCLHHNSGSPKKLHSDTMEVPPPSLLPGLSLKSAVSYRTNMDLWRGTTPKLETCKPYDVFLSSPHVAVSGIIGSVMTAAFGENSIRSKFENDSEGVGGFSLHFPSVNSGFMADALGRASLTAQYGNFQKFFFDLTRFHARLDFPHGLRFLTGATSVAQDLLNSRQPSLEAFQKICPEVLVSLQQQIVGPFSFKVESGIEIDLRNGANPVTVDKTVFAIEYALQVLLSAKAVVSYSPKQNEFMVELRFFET
# Procedure: as §4, §5
# [6] = mixed PA/PC liposomes, FIGS. 5E and 5F
# T2 sequence (Q9LTR2 other isoform, or with tags, fused parts or gaps DEL201-225): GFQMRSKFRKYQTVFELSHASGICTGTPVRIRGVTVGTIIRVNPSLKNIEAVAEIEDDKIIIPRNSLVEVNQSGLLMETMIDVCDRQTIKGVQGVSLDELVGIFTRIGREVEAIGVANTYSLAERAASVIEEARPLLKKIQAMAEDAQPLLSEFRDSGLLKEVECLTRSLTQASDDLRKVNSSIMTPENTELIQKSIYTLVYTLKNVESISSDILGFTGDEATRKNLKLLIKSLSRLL
smiles,measurement,setting,value
"CCCCCCCC/C=C\CCCCCCCC(=O)OC[C@H](COP(=O)(O)O)OC(=O)CCCCCCC/C=C\CCCCCCCC [PA, phosphatidic acid]",PA binding on membrane strip,[1],"binds PA on the membrane strip, with apparent lower affinity"
same,residual PA binding activity,[2]; PA liposomes,"retains residual binding activity, albeit with significantly lower affinity"
same,"Hill number, PA binding",[2]; [6],7.3
same,"Kd, PA binding",[2]; [6],53.47 mol %
same,PtdOH binding affinity,[3],much lower affinity compared to the wild-type protein DsRED-TGD4-His but still bound PtdOH
same,binding to PC or PA,[4],does not display binding
same,effect of pH on PtdOH binding,[5],not affected
